Consider 3 compounds from publication PMC3003687, “α-Galactosylceramide Analogs with Weak Agonist Activity for Human iNKT Cells Define New Candidate Anti-Inflammatory Agents” (PLoS ONE, 2010).

In one assay the target is Human iNKT TCRs (Homo sapiens, UniProt A0A075B6N4+A0A0B4J240+P15813). The assay can be described thus: Equilibrium binding of analog-loaded hCD1d tetramers to iNKT cell clones. The source says: For flow cytometric analysis, 6B11 (Vα24Jα18 specific) and mAbs specific for human CD3, CD4, CD8α, CD19, CD40L (CD154), CD56, CD69, GM-CSF & IFNγ were obtained from BD Biosciences. IL-4 and IL-13 specific mAbs were from Biolegend. Vα24 (C15) and Vβ11 (C21) specific mAb were from Immunotech. For antibody blocking in culture assays, non-specific isotype matched control, IL-2, IFNγ, IL-12p70 and CD40L specific mAbs without preservatives were obtained from BD Biosciences and IL-18 specific mAb from Medical & Biological Laboratories (MBL, Nagoya, Japan). Phycoerythrin and allophycocyanin labeled human CD1d tetramers were prepared in our laboratory as previously described. Curves of tetramer equilibrium binding constants and graphs were plotted using the Graphpad Prism Software (Version 5). KD values were calculated using the function non-linear fit (hyperbola, one binding site).
Sequence of Human iNKT TCRs (P15813 20-301): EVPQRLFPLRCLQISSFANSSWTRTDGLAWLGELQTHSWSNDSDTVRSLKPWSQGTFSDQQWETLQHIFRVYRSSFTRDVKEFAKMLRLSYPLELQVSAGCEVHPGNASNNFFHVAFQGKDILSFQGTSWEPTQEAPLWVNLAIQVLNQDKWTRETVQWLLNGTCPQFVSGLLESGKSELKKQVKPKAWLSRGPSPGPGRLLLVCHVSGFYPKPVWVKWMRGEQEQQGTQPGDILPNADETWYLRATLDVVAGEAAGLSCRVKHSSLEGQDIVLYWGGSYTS
Sequence of Human iNKT TCRs (P01848 whole entry, further chain): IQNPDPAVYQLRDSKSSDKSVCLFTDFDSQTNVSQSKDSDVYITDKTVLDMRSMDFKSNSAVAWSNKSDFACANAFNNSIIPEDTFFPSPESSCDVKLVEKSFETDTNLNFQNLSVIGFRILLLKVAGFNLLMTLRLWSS
Sequence of Human iNKT TCRs (A0A0B4J240 22-114): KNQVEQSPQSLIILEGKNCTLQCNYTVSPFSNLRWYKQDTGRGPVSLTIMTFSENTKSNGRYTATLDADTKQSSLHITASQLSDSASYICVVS
Sequence of Human iNKT TCRs (P61769 21-119, further chain): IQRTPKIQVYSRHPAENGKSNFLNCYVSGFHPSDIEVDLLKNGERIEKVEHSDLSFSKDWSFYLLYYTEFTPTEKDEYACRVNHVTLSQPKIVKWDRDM
Sequence of Human iNKT TCRs (A0A075B6N4 22-114): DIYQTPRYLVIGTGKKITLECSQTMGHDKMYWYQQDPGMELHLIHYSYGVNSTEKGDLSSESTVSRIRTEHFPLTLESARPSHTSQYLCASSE
To characterize in more detail the iNKT cell TCR recognition of αGalCer analogs presented by human CD1d, we generated soluble and fluorescent tetrameric hCD1d molecules loaded with each of the glycolipid analogs. […] This was similar to the previously reported failure of mouse CD1d tetramer loaded with lysosulfatide to bind detectably to murine non-invariant and sulfatide specific NKT cells, despite a clear reactivity to this lipid upon presentation by APCs; [40]. […] To quantitate their binding avidities to iNKT cell TCRs, we used titration of analog-loaded hCD1d tetramers to determine equilibrium dissociation constants (KD), which are inversely proportional to avidity (Figure 3A and 3B).
Figure 3 Characterization of human iNKT cell TCR interactions with analog-loaded tetramers. (A) iNKT cell clones were stained with titrated amounts of hCD1d tetramers loaded with the indicated glycolipids (abbreviations as in legend to Figure 1), and the measured MFI values are plotted for selected glycolipids. (B) The equilibrium dissociation constants (KD, inversely proportional to TCR avidity) were determined as the concentrations of tetramers required to yield 50% of maximal binding. Data shown were obtained using the CD4^+ iNKT cell clone HDD3, and similar results (not shown) were obtained with a second CD4^+ clone (HDD11) and a CD4^−8^− double negative iNKT cell clone (HDE3). (C) Analysis of iNKT cell clones labeled with 20 nM of hCD1d tetramers which were loaded with variable excesses of analog to constant hCD1d (25 to 1000 fold molar excess of glycolipid to hCD1d protein). The measured MFI values were normalized as the percent of the maximum staining intensity obtained with each analog loaded tetramer. Data presented were generated with HDD3 (CD4+) iNKT cell clone, and similar results (not shown) were obtained with HDE3 (DN) clone.

For the next assay, the system named is human iNKT cell clones. Kind of assay: Cytokine ELISA of human iNKT cell clones stimulated with glycolipid-pulsed CD1d-transfected HeLa cells. The settings on record: for iNKT cell clone cytokine response / agonist activity: dose range, IFNγ, IL-4, IL-13, clones HDD3, HDD11, HDE3, HDA7. Format: cell-based. On the procedure: Capture ELISA assays were used for measurement of cytokine responses of human iNKT cells to αGalCer analogs. One day prior to the experiment, CD1d transfected HeLa cells were plated at 25×10^3 cells/well in 100 µL of medium in flat-bottom 96 well plates. Glycolipids were then added in 100 µL of medium to give final concentrations ranging from 0.05 to 10^4 nM. The APCs were incubated for approximately 18 hours with the glycolipids and then irradiated (10,000 Rad) and washed twice with PBS prior to addition of 25×10^3 iNKT cells well in 300 µL. Supernatants were harvested after 24 hours of co-culture and stored frozen at -20°C. After thawing, aliquots of the supernatants were assayed for specific cytokines by ELISA using capture and biotin-labeled detection antibody pairs specific for GM-CSF, IL-2, IL-4, IL-12p70 and IL-13 (all obtained from BD Biosciences), IFNγ (Thermo-Scientific) or IL-18 (MBL). Specific signals were developed using HRP- conjugated streptavidin (BD Biosciences) and Turbo TMB substrate (Thermo-Scientific). Supernatants were tested pure and/or diluted to give values within a quantitative linear standard curve generated with recombinant cytokines. Curves of dose-dependent cytokine responses and graphs were plotted using the Graphpad Prism Software. EC50 values were calculated using the function log (agonist) response with variable slope, and statistical analyses were carried out using the same software. To calculate concentration-dependent cytokine ratios, IL-4/IFNγ and IL-13/IFNγ ratios were calculated using cytokine values from which background levels (i.e. levels in cultures receiving DMSO vehicle alone) were subtracted. Ratios were calculated by dividing IL-4 or IL-13 concentrations in pg/mL by IFNγ concentration in ng/mL.

A further assay relates to human iNKT cells. Particulars: cited from earlier work.
Assay [1] has as its system human iNKT cells and NK cells. Kind of assay: In vitro transactivation assay (CFSE-labeled iNKT cells co-cultured with PBMC). Type of assay: cell-based. The settings on record: 100 nM, 24 h. The method, then: iNKT cells were stained for 5 minutes with 1–20 µM of CFSE (Molecular probes) and 5% FCS in PBS and washed twice. As a positive control, a fraction of CFSE-labeled iNKT cells were preactivated for 30 minutes with 1 µg/mL of PMA and 250 ng/mL of Ionomycin (Sigma-Aldrich) in culture medium and extensively washed. The experiment was initiated by adding CFSE-labeled unstimulated or PMA/Ionomycin-preactivated iNKT cells to freshly prepared PBMC pulsed with vehicle or αGalCer analogs at the indicated concentrations and at an iNKT/PBMC ratio of 1/10 or 1/40. Supernatants and cells were harvested from parallel conditions after the indicated time of co-culture. For intracellular cytokine staining, brefeldin A (Golgiplug, BD Biosciences) was added 4 h before harvesting the cells, which were fixed with 1% paraformaldehyde and permeabilized with 0.1% saponin (Sigma-Aldrich) prior to mAb staining. Experiments with blocking antibodies were performed with 10 µg/mL of preservative-free mAbs, including isotype matched control, anti-IL-2, anti-IL-12, anti-IFNγ and anti-CD40L (all from BD Biosciences) or anti-IL-18 (MBL). For detection of CD40L expression by iNKT cells, co-cultures of iNKT and PBMC were prepared as above, except that monensin (Golgistop, BD Biosciences) and fluorescent CD40L specific mAb (1/10 or 1/20 final dilution) were added at the beginning of the experiment, as previously described.
Figure 6 A novel in vitro “transactivation assay” to assess the ability of human iNKT cells to activate other leukocytes. (A) Format for analysis of transactivation of bystander leukocytes. Flow cytometric analysis was carried out for culture containing iNKT cells co-cultured for 24 hours with fresh human PBMC at a 1/10 ratio. For the intracellular detection of IFNγ, Brefeldin A was added for the last 4 hours. Representative electronic gating is shown for the discrimination of CFSE-labeled iNKT cells, B cells, T cells, and NK cells to measure IFNγ expression (or CD69 expression, not shown). Filled black histograms show staining with vehicle control and are overlaid with open gray histograms for stimulation with 100 nM of KRN7000. (B) Dose-dependent IFNγ and CD40L expression by iNKT cells (top and middle graph, respectively) and IFNγ production by transactivated NK cells (bottom graph), after 24 h of co-culture of CFSE-labeled iNKT cells and PBMCs at a 1/10 ratios and the indicated concentration of either KRN7000 (black filled circles) or the adamantanoyl (AD) analog (open circles). Data are presented for a CD4^+ clone (HDD3), and similar results (not shown) were obtained with a DN clone (HDE3). (C) Effect of specific blockade of various cytokines and CD40L on the activation of iNKT cells and transactivated NK cells. CFSE-labeled iNKT cells and PBMCs were co-cultured at a 1/40 ratio for the indicated time, in the presence of KRN7000 at 25 nM and 10 µg/mL of isotype matched control or specific blocking antibodies as indicated. Average percentages of IFNγ^+ iNKT cells and NK cells, assessed by intracellular staining at 24, 48 and 66 hours, are indicated in the left and right plots, respectively.
Figure 7 Comparison of αGalCer analogs for their ability to induce NK cell transactivation. (A) iNKT cell clones were co-cultured for 24 hours with fresh human PBMC at a 1/10 ratio with 100 nM of the indicated analogs, and Brefeldin A was added for the last 4 hours. The percentages of IFNγ^+ iNKT cells (open bars) and IFNγ^+ NK cells (filled bars) are indicated. Cytokine levels were assessed by ELISA in supernatants from identical conditions in absence of Brefeldin A treatment: (B) IFNγ levels (open bars) and IL-13 levels (filled bars); the detection limit was 82.3 ng/mL for both cytokines. (C) IL-12 levels (open bars) and IL-18 levels (filled bars); the detection limit was 27.4 ng/mL. Results obtained with a CD4^+ clone (HDD3) are presented, and similar data (not shown) were obtained with a DN clone (HDE3).

As to `CCCCCCCCCCCCCCCCCCCCCCCCCC(=O)N[C@@H](CC[C@H]1O[C@H](CO)[C@H](O)[C@H](O)[C@H]1O)[C@H](O)[C@H](O)CCCCCCCCCCCCCC` [C-glycoside], at Human iNKT TCRs, the “staining of iNKT cell clones by analog-loaded hCD1d tetramers” value was “only a weak staining intensity of a subset of iNKT cell clones tested”. In addition, in the assay with human iNKT cell clones (CD4+ clone HDD3), the “reactivity of HDD3 iNKT cell clone” value is on record as “did not display detectable reactivity”. Besides, in the assay with human iNKT cell clones (primarily IL-13 production, limited induction of IFNγ), the “reactivity of a fraction of the iNKT cell clones tested” value is recorded as “weak, but detectable, reactivity”. Moreover, the “clones with detectable reactivity” value in the assay on human iNKT cell clones (six clones tested) was “Two clones out of six clones tested”. The “stimulation of human iNKT cells in culture” value in the assay on human iNKT cells is “only weakly stimulatory”.
As to `CCCCCCCCCCCCCC[C@@H](O)[C@@H](O)[C@@H](N)CO[C@H]1O[C@H](CO)[C@H](O)[C@H](O)[C@H]1O` [Lyso], on Human iNKT TCRs, the “staining of iNKT cell clones by analog-loaded hCD1d tetramers” value was “failed to detectably stain any of our iNKT cell clones”. The “iNKT cell clone cytokine response / agonist activity” value with human iNKT cell clones is reported as “substantially lower iNKT cell response”. For the same compound, in assay [1] (ELISA), the “IL-12 levels in supernatants” value is reported as “undetectable”; the “IL-13 levels in supernatants” value is “lower, but still detectable, IL-13 levels”; the “IL-18 levels in supernatants” value was “remained low”; the “global IFNγ production in supernatants” value is reported as “lower global IFNγ production”. Moreover, the “ability to activate iNKT cells and stimulate NK cell transactivation (IFNγ+ cells)” value in assay [1] (iNKT/PBMC 1/10, compared with KRN7000) is on record as “lower degree of iNKT cell activation with a limited transactivation of NK cells”.
For the compound `CCCCCCCCCCCCCCCCCCCCCCCC(=O)N[C@@H](CO[C@H]1O[C@H](CO)[C@H](O)[C@H](O)[C@H]1O)[C@H](O)[C@H](O)CCCCC` [OCH], the “staining of iNKT cell clones by analog-loaded hCD1d tetramers” value at Human iNKT TCRs was “only a weak staining intensity of a subset of iNKT cell clones tested”. In addition, the EC50 in the assay with human iNKT cell clones (Homo sapiens, iNKT, HDD3 clone, IL-4 levels did not reach a plateau) was > 10 µM. Besides, in the assay with human iNKT cell clones (all clones tested), the “induction of IL-4” value is recorded as “minimal”. Besides, in the assay on human iNKT cell clones (all iNKT cell clones tested), the “concentration required to induce detectable IL-13 production or weak IFNγ secretion” value is > 10 nM. Also, the “iNKT cell clone cytokine response / agonist activity” value in the assay with human iNKT cell clones is listed as “much weaker reactivity”. Further, in the assay on human iNKT cells, the “ability to stimulate human iNKT cells” value is given as “weak or no detectable ability to stimulate human iNKT cells”.
